The results in this text go back to patent US8507494B2, “Heterocyclic quinolizine derived M1 receptor positive allosteric modulators” (Merck Sharp & Dohme Corp., priority 2010, dated 2013).

For this assay, the target named is T1, acetylcholine muscarinic M1 receptor (Homo sapiens, UniProt P11229).
T1 construct: expressed in transfected cells; host or cells: CHOnfat cells (CHOnfat/hM1)
T1 sequence (P11229 1-460): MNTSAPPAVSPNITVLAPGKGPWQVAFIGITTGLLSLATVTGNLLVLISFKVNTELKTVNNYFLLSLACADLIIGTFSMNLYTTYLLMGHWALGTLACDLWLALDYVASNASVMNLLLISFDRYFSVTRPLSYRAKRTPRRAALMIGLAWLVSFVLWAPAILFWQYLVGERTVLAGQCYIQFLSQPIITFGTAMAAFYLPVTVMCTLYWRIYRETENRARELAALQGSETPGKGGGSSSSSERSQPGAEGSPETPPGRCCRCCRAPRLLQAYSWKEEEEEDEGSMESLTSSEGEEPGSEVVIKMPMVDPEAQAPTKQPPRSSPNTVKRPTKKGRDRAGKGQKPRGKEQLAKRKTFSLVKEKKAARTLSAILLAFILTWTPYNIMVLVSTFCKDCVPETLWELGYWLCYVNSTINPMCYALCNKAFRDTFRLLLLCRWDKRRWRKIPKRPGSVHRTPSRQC
As to the kind of experiment: FLIPR intracellular calcium assay for M1 receptor positive allosteric modulator activity. Format: cell-based. The note with it: inflection point from FLIPR values; CHOnfat/hM1 cells; 4 min preincubation, then EC20 acetylcholine (3 nM final); read-out: M1 IP Value. The protocol: The assay studies the effect of one or several concentrations of test compounds on basal or acetylcholine-stimulated Ca^2+ levels using FLIPR.
Compounds are prepared and subjected to a preincubation period of 4 min. Thereafter, a single EC20 concentration of acetylcholine is added to each well (3 nM final). The intracellular Ca^2+ level of each sample is measured and compared to an acetylcholine control to determine any modulatory activity.
Cells: CHOnfat/hM1, hM2, hM3 or hM4 cells are plated 24 hr before the assay at a density of 18,000 cells/well (100 μL) in a 384 well plate. CHOnfat/hM1 and CHOnfat/hM3 Growth Medium: 90% DMEM (Hi Glucose); 10% HI FBS; 2 mM L-glutamine; 0.1 mM NEAA; Pen-Strep; and […] Geneticin, are added. For M2Gqi5CHOnfat and M4Gqi5CHOnfat cells, an additional 600 ug/ml hygromycin is added.
Equipment: 384 well plate, 120 μL addition plate; 96-well Whatman 2 ml Uniplate Incubator, 37° C., 5% CO2; Skatron EMBLA-384 Plate Washer; Multimek Pipetting System; Genesis Freedom 200 System; Mosquito System; Temo Nanolitre Pipetting System; and FLIPR^384 Fluorometric Imaging Plate Reader System are used.
Buffers. […]
After 60 min, the cells are washed three times with 100 μL of buffer, leaving 30 μL of buffer in each well. […] A signal test to check background fluorescence and basal fluorescence signal is performed. […]

On to `Cn1cc(N2CCN(Cc3cc4c(=O)n(-c5ccccc5F)nc-4n4ccccc34)CC2=O)cn1` [Example 2, 2-(2-Fluorophenyl)-5-{[4-(1-methyl-1H-pyrazol-4-yl)-3-oxopiperazin-1-yl]methyl}pyrazolo[4,3-c]quinolizin-3(2H)-one], for which the EC50 was determined as 322 nM. `Cc1ccnc(C2(C#N)CCN(Cc3cc4c(=O)n(-c5ccccc5F)nc-4n4ccccc34)CC2)c1` [Example 1, 1-{[2-(2-Fluorophenyl)-3-oxo-2,3-dihydropyrazolo[4,3-c]quinolizin-5-yl]methyl}-4-(4-methylpyridin-2-yl)piperidine-4-carbonitrile]: the EC50 is 175 nM.
